From patent US5137811A, “Method for diagnosing periodontal diseases with a substrate specific for aminopeptidase activity of periodontopathic bacteria” (Sunstar Kabushiki Kaisha, priority 1986, dated 1992)
Where a SMILES comes first, the peptide text is derived from it. The star is where a group is joined. βNA = c1ccc2cc(N*)ccc2c1; Cbz = O=C(OCc1ccccc1)*

Key:
[1] = tested on: Actinobacillus actinomycetemcomitans; test: Hydrolytic activity of oral anaerobe cell suspension on aminopeptidase substrates (Experiment 1); assay type: cell-based; details: four strains, substrate 0.2 mM, pH 7.0, 37° C., 60 minutes, Table 1
Description: (§1) Oral anaerobes, i.e., four strains of Treponema denticola, five strains of B. gingivalis, four strains of Actinobacillus actinomycetemcomitans, four strains of Capnocytophaga sp. and three strains of Fusobacterium nucleatum were tested for hydrolytic activity to the substrate of aminopeptidase enzyme as follows.
(§2) The strains of Treponema were anaerobically cultivated using TYGVS media at 37° C. for 7 days, while other bacterial strains were cultivated using brain heart infusion broth at 37° C. for 48 to 72 hours. Each culture was diluted to obtain a bacterial cell suspension, the absorption at 660 nm of which was 1.0.
(§3) Substrate compounds for aminopeptidase enzyme having various color developing groups derived from β-naphthylamine were dissolved in 0.1M Tris-HCl buffer (pH 7.0) at the concentration of 0.2 mM to obtain substrate solutions.
(§4) To the substrate solution (1.5 ml) was added the above cell suspension (0.3 ml) and reacted at 37° C. for 60 minutes. After completion of the reaction, a coloring reagent [prepared by dissolving diazonium salt of Garnet GBC in 1M acetate buffer (containing 10% Tween 20, pH: 4.2) at the concentration of 0.5 mg/ml] was added and, after 15 minutes, the absorption at 525 nm was determined with a spectrophotometer.
(§5) On the basis of the average amount of released β-naphthylamine in each strain, the hydrolytic activity was expressed as follows: […]

[2] = tested on: Bacteroides gingivalis; test: as above; assay type: cell-based; details: five strains, substrate 0.2 mM, pH 7.0, 37° C., 60 minutes, Table 1
Description: as §1, §2, §3, §4, §5

[3] = tested on: Capnocytophaga sp.; test: as above; assay type: cell-based; details: four strains, substrate 0.2 mM, pH 7.0, 37° C., 60 minutes, Table 1
Description: as §1, §2, §3, §4, §5

[4] = tested on: Fusobacterium nucleatum; test: as above; assay type: cell-based; details: three strains, substrate 0.2 mM, pH 7.0, 37° C., 60 minutes, Table 1
Description: as §1, §2, §3, §4, §5

[5] = tested on: Treponema denticola; test: as above; assay type: cell-based; details: four strains, substrate 0.2 mM, pH 7.0, 37° C., 60 minutes, Table 1
Description: as §1, §2, §3, §4, §5

[6] = tested on: Actinobacillus actinomycetemcomitans; test: Hydrolytic activity of cell suspension on aminopeptidase substrates (Experiment 2); assay type: cell-based; details: four strains, Table 2
Description: as §2, §3, §4, §5
(§6) According to the same manner as described in Experiment 1, periodontopathic bacteria specific aminopeptidase activity was tested by using four strains of Treponema denticola, five strains of B. gingivalis, three strains of B. intermedius, two strains of B. melaninogenicus, two strains of Actinomyces israelli, four strains of Actinobacillus actinomycetemcomitans and three strains of Fusobacterium nucleatum. Abbreviations used in Table 2 mean the following substrate compounds.

[7] = tested on: Actinomyces israelli; test: as above; assay type: cell-based; details: two strains, Table 2
Description: as §2, §3, §4, §5, §6

[8] = tested on: B. corporis; test: as above; assay type: cell-based; details: Table 2
Description: as §2, §3, §4, §5, §6

[9] = tested on: B. denticola; test: as above; assay type: cell-based; details: Table 2
Description: as §2, §3, §4, §5, §6

[10] = tested on: B. gingivalis; test: as above; assay type: cell-based; details: five strains, Table 2
Description: as §2, §3, §4, §5, §6

[11] = tested on: B. intermedius; test: as above; assay type: cell-based; details: three strains, Table 2
Description: as §2, §3, §4, §5, §6

[12] = tested on: B. melaninogenicus; test: as above; assay type: cell-based; details: two strains, Table 2
Description: as §2, §3, §4, §5, §6

[13] = tested on: Fusobacterium nucleatum; test: as above; assay type: cell-based; details: three strains, Table 2
Description: as §2, §3, §4, §5, §6

[14] = tested on: Treponema denticola; test: as above; assay type: cell-based; details: four strains, Table 2
Description: as §2, §3, §4, §5, §6

[15] = tested on: periodontopathic bacteria specific aminopeptidase activity; test: Hydrolytic activity of gingival crevicular fluid specimens, visually evaluated (Experiment 5); assay type: biochemical; design: key: -: orange; +: dark orange; ++: brown; +++: dark brown
Description: as §3, §4
Specimens of gingival crevicular fluid were collected with paper points from five subjects who were considered to be healthy from their clinical state, six subjects with gingivitis and six subjects with periodontitis. Each specimen was dispersed in Ringer's solution (1.5 ml), and the relative amount of spirochete to total bacteria: [formula] was determined with a phase contrast microscope. Further, the Ringer's solution (0.3 ml) was tested for hydrolytic activity using the substrate solution prepared in the same manner as described in Experiment 1. As substrates, there were used compounds of the formula [1], i.e., N-benzoylvalyl-glycyl-arginine-β-naphthylamide (BzVGR) and N-carbobenzoxy-valyl-glycyl-arginine-β-naphthylamide (CxVGR) were used.
In table 4, hydrolytic activity was visually evaluated and expressed as follows: […]
According to the same manner as described in Experiment 4, hydrolytic activity was tested by using the compounds of the formula [2], i.e., lysyl-proline-β-naphthylamide (KP) and N-carbobenzoxy-prolyl-alanyl-glycylproline-β-naphthylamide (CxPAGP) as the substrates.

Row | Structure (SMILES) | hydrolytic activity (average amount of released β-naphthylamine) [1] | hydrolytic activity (average amount of released β-naphthylamine) [2] | hydrolytic activity (average amount of released β-naphthylamine) [3] | hydrolytic activity (average amount of released β-naphthylamine) [4] | hydrolytic activity (average amount of released β-naphthylamine) [5] | hydrolytic activity (average amount of released β-naphthylamine) [6] | hydrolytic activity (average amount of released β-naphthylamine) [7] | hydrolytic activity (average amount of released β-naphthylamine) [8] | hydrolytic activity (average amount of released β-naphthylamine) [9] | hydrolytic activity (average amount of released β-naphthylamine) [10] | hydrolytic activity (average amount of released β-naphthylamine) [11] | hydrolytic activity (average amount of released β-naphthylamine) [12] | hydrolytic activity (average amount of released β-naphthylamine) [13] | hydrolytic activity (average amount of released β-naphthylamine) [14] | further results
1 | NCCCC[C@H](N)C(=O)Nc1ccc2ccccc2c1 [K, lysine-β-naphthylamide, reference compound] | - (release amount<5 nmol/ml) | - (release amount<5 nmol/ml) | +++ (release amount≥40 nmol/ml) | - (release amount<5 nmol/ml) | - (release amount<5 nmol/ml) | - (release amount<5 nmol/ml) | - (release amount<5 nmol/ml) | - (release amount<5 nmol/ml) | - (release amount<5 nmol/ml) | - (release amount<5 nmol/ml) | - (release amount<5 nmol/ml) | - (release amount<5 nmol/ml) | - (release amount<5 nmol/ml) | - (release amount<5 nmol/ml) | 
2 | NCC(=O)Nc1ccc2ccccc2c1 [G, glycine-β-naphthylamide, reference compound] | - (release amount<5 nmol/ml) | - (release amount<5 nmol/ml) | + (10 ≤release amount<20 nmol/ml) | - (release amount<5 nmol/ml) | - (release amount<5 nmol/ml) | - (release amount<5 nmol/ml) | - (release amount<5 nmol/ml) | - (release amount<5 nmol/ml) | - (release amount<5 nmol/ml) | - (release amount<5 nmol/ml) | - (release amount<5 nmol/ml) | - (release amount<5 nmol/ml) | - (release amount<5 nmol/ml) | - (release amount<5 nmol/ml) | 
3 | C[C@H](NC(=O)[C@@H]1CCCN1C(=O)OCc1ccccc1)C(=O)NCC(=O)N1CCC[C@H]1C(=O)Nc1ccc2ccccc2c1 [CxPAGP, N-carbobenzoxy-prolyl-alanyl-glycyl-proline-β-naphthylamide] (Cbz-PAGP-βNA) |  |  |  |  |  | - (release amount<5 nmol/ml) | - (release amount<5 nmol/ml) | ++ (20 ≤release amount<40 nmol/ml) | +++ (release amount≥40 nmol/ml) | + (10 ≤release amount<20 nmol/ml) | +++ (release amount≥40 nmol/ml) | +++ (release amount≥40 nmol/ml) | - (release amount<5 nmol/ml) | +++ (release amount≥40 nmol/ml) | hydrolytic activity, visually evaluated ([15]; Gingivitis subject 1 (spirochete 7.3 %)): +; hydrolytic activity, visually evaluated ([15]; Gingivitis subject 2 (spirochete 16.7 %)): +; hydrolytic activity, visually evaluated ([15]; Gingivitis subject 3 (spirochete 20.5 %)): ++; hydrolytic activity, visually evaluated ([15]; Gingivitis subject 4 (spirochete 6.8 %)): -; hydrolytic activity, visually evaluated ([15]; Gingivitis subject 5 (spirochete 7.3 %)): -; hydrolytic activity, visually evaluated ([15]; Gingivitis subject 6 (spirochete 14.4 %)): +; hydrolytic activity, visually evaluated ([15]; Healthy subject 1 (spirochete 0.1 %)): -; hydrolytic activity, visually evaluated ([15]; Healthy subject 2 (spirochete 2.5 %)): +; hydrolytic activity, visually evaluated ([15]; Healthy subject 3 (spirochete 1.1 %)): -; hydrolytic activity, visually evaluated ([15]; Healthy subject 4 (spirochete 0.6 %)): -; hydrolytic activity, visually evaluated ([15]; Healthy subject 5 (spirochete 1.3 %)): -; hydrolytic activity, visually evaluated ([15]; Periodontitis subject 1 (spirochete 45.2 %)): +++; hydrolytic activity, visually evaluated ([15]; Periodontitis subject 2 (spirochete 30.3 %)): +++; hydrolytic activity, visually evaluated ([15]; Periodontitis subject 3 (spirochete 34.6 %)): +++; hydrolytic activity, visually evaluated ([15]; Periodontitis subject 4 (spirochete 21.2 %)): +++; hydrolytic activity, visually evaluated ([15]; Periodontitis subject 5 (spirochete 40.3 %)): +++; hydrolytic activity, visually evaluated ([15]; Periodontitis subject 6 (spirochete 35.1 %)): +++
4 | C[C@H](N)C(=O)Nc1ccc2ccccc2c1 [A, alanine-β-naphthylamide, reference compound] | - (release amount<5 nmol/ml) | - (release amount<5 nmol/ml) | +++ (release amount≥40 nmol/ml) | - (release amount<5 nmol/ml) | - (release amount<5 nmol/ml) | - (release amount<5 nmol/ml) | - (release amount<5 nmol/ml) | - (release amount<5 nmol/ml) | - (release amount<5 nmol/ml) | - (release amount<5 nmol/ml) | - (release amount<5 nmol/ml) | - (release amount<5 nmol/ml) | - (release amount<5 nmol/ml) | - (release amount<5 nmol/ml) | 
5 | N=C(N)NCCC[C@H](N)C(=O)Nc1ccc2ccccc2c1 [R, arginine-β-naphthylamide, reference compound] | - (release amount<5 nmol/ml) | - (release amount<5 nmol/ml) | +++ (release amount≥40 nmol/ml) | - (release amount<5 nmol/ml) | - (release amount<5 nmol/ml) | - (release amount<5 nmol/ml) | - (release amount<5 nmol/ml) | - (release amount<5 nmol/ml) | - (release amount<5 nmol/ml) | - (release amount<5 nmol/ml) | - (release amount<5 nmol/ml) | - (release amount<5 nmol/ml) | - (release amount<5 nmol/ml) | - (release amount<5 nmol/ml) | 
